Key:
[1] = biological target: T1, recombinant mouse TLR2-Fc fusion protein (Mus musculus, UniProt Q9QUN7); assay: Competitive binding of CEP-PE vs CEP-HSA to recombinant mouse TLR2-Fc protein (ELISA); details: vesicles 0 to 125 μM; coated CEP-HSA; mTLR2-Fc 1 μg/ml
T1 construct: purchased R&D systems (Minneapolis, Minn.)
Method: Small unilamellar vesicles of CEP-DPPE (125 μM) in phosphate buffered saline (PBS) were prepared by extruding (20 times) the hydrated phospholipids through a 0.1 μm polycarbonate filter using an Avanti Mini-Extruder (Avanti Polar Lipids, Inc., Alabaster, Ala.). The resulting solution was diluted to various concentrations by addition of PBS. To a 96-well ELISA plate, 100 μl of 5 μM CEP in CEP-HSA protein in PBS solution was added into each well and the plate was incubated at 37° C. for 1 h. PBS (100 μl) was used as control. Then the wells were washed with PBS and the non-binding sites on wells were blocked with 350 μL of 4% bovine serum albumin (BSA) in PBS buffer for 1 h at 37° C. blocking was completed, a mixture of recombine-ant mouse TLR2-Fc protein at a fixed concentration (1 μg/ml, in 1% BSA-PBS) with an equal volume of CEP-PE vesicles at concentrations from 0 to 125 μM was added to each well, and the plate was allowed to incubate for 1 h at 37° C. DPPE vesicle solutions at 0, 50, 75 and 120 μM concentration, prepared by sonication, were used as parallel samples. After washing the plate with PBS containing 0.1% Tween-20 (PBST) buffer, 100 μL of 1:2,000 diluted goat anti-human Fc antibody in PBST buffer was added to each well. […] After an additional 30 min incubation, the absorbance for each well was read at 405 nm with a microplate reader (Bio-Rad, Hercules, Calif.).

HUVECs = assay: HUVEC tube formation assay; format: cell-based, human
Method: For comparing the ability of various CEP-derivatives to promote tube formation (FIG. 2A) HUVECs were seeded on Matrigel-coated 48 well plates (BD Bioscience). The DMEM-F12 medium (Media lab, Cleveland Clinic, Cleveland, Ohio) was supplemented with various CEP-derivatives as indicated and incubated with cultured HUVECs at 37° C. for 8 h. Tube formation by HUVECs was observed using a phase contrast inverted microscope. Two independent assays were performed by two operators, one used PBS as control and the other used DPPE vesicles as control. The data were quantified either by measuring the length of tubes or by the number of branches. For testing the effects of oxPAPC, a TLR2 inhibitor, (FIG. 2C) or TLR2 knockdown (FIG. 2D) on the ability of CEP-PE to promote tube formation, growth factor-reduced (GFR) basement membrane extract (Cultrex BME, Trevigen, Gaithersburg, Md.; 175 μl/well) was added to the wells of an ice-cold 48-well plate and then incubated at 37° C. for 1 h to allow the gel to solidify. Overnight-starved, trypsin detached and extensively washed HUVECs (2.5×10^4 cells/well; Promocell, GmbH, Heidelberg, Germany) in a basal Growth Medium 2 (GM2; Promocell, GmbH) were seeded onto the BME coated wells. […] They were further thoroughly washed three times with GM2 basal medium, counted and seeded onto BME coated wells. […]

[2] = system: PLD from Streptomyces chromofuscus; assay: PLD-catalyzed hydrolysis of pyrrole-modified PEs, monitored by LC-MS; format: biochemical
Method: The isolated lipids were hydrolyzed with PLD (Streptomyces chromofuscus) by a modification of the method described previously for hydrolysis of isolevuglandin modified PEs. Lipids were re-suspended in 50 μL of methanol. Then 450 μL of HBSS buffer (Thermo Scientific, Waltham, Mass.) supplemented with 5 mM CaCl2 and 0.1 mM EDTA was added. The mixture was incubated at 37° C. for 30 min, and then was sonicated for 10 min. The cloudy lipid mixture was passed through a 0.1 μm polycarbonate filter (20 times) for extrusion using an Avanti Mini- Extruder Set (Avanti Polar Lipids, Inc., Alabaster, Ala.) to generate a homogeneous unilammelar lipid vesicle solution. Then 280 units of PLD (Streptomyces chromofuscus) were added to each sample. The mixture was incubated under argon with gentle shaking at 37° C. overnight. The next day the samples were evaporated to dryness under a stream of nitrogen for 2 h. […]
To verify CEP-PEs are substrates of PLD, CEP-DPPE and d4-CEP-PE standards were treated with PLD from Streptomyces chromofuscus. Then the generation of CEP-ETN and d4-CEPETN was monitored by LC-MS/MS, respectively. […]
Total phospholipids isolated from biological samples by a modified Bligh & Dyer method, were prepared for phospholipolysis by conversion into small unilamellar vesicles (SUVs) by extrusion. […] The resulting product mixture was then analyzed by injection into the LC-MS/MS. […]

T1 sequence (Q9QUN7 with tags, fused parts or gaps limits assumed): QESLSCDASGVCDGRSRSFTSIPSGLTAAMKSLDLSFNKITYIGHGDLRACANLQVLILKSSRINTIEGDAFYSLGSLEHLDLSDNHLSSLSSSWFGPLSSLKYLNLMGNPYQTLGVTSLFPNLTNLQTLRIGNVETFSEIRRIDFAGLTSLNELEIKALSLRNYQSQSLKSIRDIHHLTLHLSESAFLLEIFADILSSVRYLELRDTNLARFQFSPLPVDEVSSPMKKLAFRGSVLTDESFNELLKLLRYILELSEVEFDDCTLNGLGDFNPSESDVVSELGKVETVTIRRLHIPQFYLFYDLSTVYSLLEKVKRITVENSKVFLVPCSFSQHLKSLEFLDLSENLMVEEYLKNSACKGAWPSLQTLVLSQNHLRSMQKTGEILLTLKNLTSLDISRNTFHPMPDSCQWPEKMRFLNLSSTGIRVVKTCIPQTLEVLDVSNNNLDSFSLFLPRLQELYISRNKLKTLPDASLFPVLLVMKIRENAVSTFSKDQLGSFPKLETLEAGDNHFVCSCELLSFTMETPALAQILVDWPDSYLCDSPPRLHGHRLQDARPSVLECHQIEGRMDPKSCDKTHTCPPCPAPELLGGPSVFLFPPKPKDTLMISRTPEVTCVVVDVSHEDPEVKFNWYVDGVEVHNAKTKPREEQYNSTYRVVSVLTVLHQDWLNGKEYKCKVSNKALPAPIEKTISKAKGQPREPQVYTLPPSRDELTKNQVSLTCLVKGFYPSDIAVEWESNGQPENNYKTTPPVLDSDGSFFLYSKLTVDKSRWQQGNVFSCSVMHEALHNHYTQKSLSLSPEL

Compound | competition with CEP-HSA in binding with mTLR2-Fc protein [1] | ability to induce tube formation by HUVECs after knockdown of TLR2 by TLR2 siRNA (HUVECs; HUVECs with transient TLR2 knockdown, 1-500 nM CEP-DPPE, 12 h) | tube formation by HUVECs (HUVECs; cultured HUVECs on Matrigel, 8 h, 0.5 μM CEP-DPPE, PBS or DPPE as negative control) | release of CEP-ETN by PLD ([2]; control experiment, incubation for 1 h (data not shown)) | hydrolysis by PLD (Streptomyces chromofuscus) to the modified ethanolamine ([2]; standards treated with PLD, LC-MS/MS or LC-MS)
CCCCCCCCCCCCCCCC(=O)OC[C@H](COP(=O)(O)OCCN)OC(=O)CCCCCCCCCCCCCCC [DPPE, 1,2-Dipalmitoyl-sn-glycero-3-phosphoethanolamine, reference compound] | does not inhibit | – | – | – | –
CEP derivative of 1,2-dipalmitoyl-sn-glycero-3-phosphoethanolamine [CEP-DPPE] | compete with CEP-HSA | abolished | induces tube formation | quantitative release | readily hydrolyzed

— patent US20170176470A1, “DETECTION OF CARBOXYALKYLPYRROLE OR PENTYLPYRROLE ETHANOLAMINE PHOSPHOLIPIDS” (CASE WESTERN RESERVE UNIVERSITY, priority 2015, published 2017)
